In patent publication US20240050428A1 (Cullgen (Shanghai), Inc., priority 2020, published 2024):
Like-named read-outs stand apart in the source and are kept apart here.

Key:
[1] = system: MOLM-13 cells; experiment: Cell viability assay (CellTiter-Glo) in MOLM-13 cells, alone or with gilteritinib; assay type: cell-based; details: Homo sapiens, MOLM-13 cells, three days, CellTiter-Glo
[2] = system: MV4;11 cells; experiment: Cell viability assay (CellTiter-Glo) in MV4;11 cells, alone or with gilteritinib; assay type: cell-based; details: Homo sapiens, MV4;11 cells, three days, CellTiter-Glo, read-out: MV4
[3] = 72 h, compound alone (without gilteritinib), read-out: MOLM-13 IC50
[4] = 72 h, with gilteritinib 20 nM, read-out: MOLM-13 IC50 gilteritinib
[5] = 72 h, compound alone (without gilteritinib), 11 IC50
[6] = 72 h, with gilteritinib 10 nM, 11 IC50 gilteritinib
[7] = MOLM-13, 72 h, compound alone (without gilteritinib), read-out: MOLM-13 IC50
[8] = MOLM-13, 72 h, with gilteritinib 20 nM, read-out: MOLM-13 IC50 gilteritinib
[9] = MV4-11, 72 h, compound alone (without gilteritinib), 11 IC50
[10] = MV4-11, 72 h, with gilteritinib 10 nM, 11 IC50 gilteritinib

Structure (SMILES)	IC50 [1, 3] [nM]	IC50 [1, 4] [nM]	IC50 [2, 5] [nM]	IC50 [2, 6] [nM]	IC50 [1, 7] [nM]	IC50 [1, 8] [nM]	IC50 [2, 9] [nM]	IC50 [2, 10] [nM]
O=C1CCC(N2C(=O)c3ccc(NCCNc4cccc(N5CCC(c6nccs6)CC5)c4)cc3C2=O)C(=O)N1 (centres unmarked) [GS-370, 2-(2,6-Dioxopiperidin-3-yl)-5-((2-((3-(4-(thiazol-2-yl)piperidin-1-yl)phenyl)amino)ethyl)amino)isoindoline-1,3-dione]	< 10	< 10	< 10	< 10	–	–	–	–
O=C1CCC(N2C(=O)c3ccc(NCCCN4CC(n5cc(-c6cnc7ccccc7n6)cn5)C4)cc3C2=O)C(=O)N1 (centres unmarked) [GS-371, 2-(2,6-Dioxopiperidin-3-yl)-5-((3-(3-(4-(quinoxalin-2-yl)-1H-pyrazol-1-yl)azetidin-1-yl)propyl)amino)isoindoline-1,3-dione]	–	–	–	–	100 to 1000	100 to 1000	> 1000	> 1000
O=C1CCC(N2C(=O)c3ccc(NCCNc4cccc(N5CCN(c6ccccn6)CC5)c4)cc3C2=O)C(=O)N1 (centres unmarked) [GS-372, 2-(2,6-Dioxopiperidin-3-yl)-5-((2-((3-(4-(pyridin-2-yl)piperazin-1-yl)phenyl)amino)ethyl)amino)isoindoline-1,3-dione]	< 10	< 10	10 to 100	< 10	–	–	–	–
O=C1CCC(N2C(=O)c3ccc(NCCNC4CC(n5cc(-c6cnc7ccccc7n6)cn5)C4)cc3C2=O)C(=O)N1 (centres unmarked) [GS-373, 2-(2,6-Dioxopiperidin-3-yl)-5-((2-((3-(4-(quinoxalin-2-yl)-1H-pyrazol-1-yl)cyclobutyl)amino)ethyl)amino)isoindoline-1,3-dione]	> 1000	> 1000	> 1000	> 1000	–	–	–	–
O=C1CCC(N2Cc3cc(CCCCCCn4cc(-c5cnc6ccccc6n5)cn4)ccc3C2=O)C(=O)N1 (centres unmarked) [GS-374, 3-(1-Oxo-5-(6-(4-(quinoxalin-2-yl)-1H-pyrazol-1-yl)hexyl)isoindolin-2-yl)piperidine-2,6-dione]	–	–	–	–	> 1000	100 to 1000	100 to 1000	> 1000
O=C1CCC(N2Cc3cc(CCCCCCCn4cc(-c5cnc6ccccc6n5)cn4)ccc3C2=O)C(=O)N1 (centres unmarked) [GS-375, 3-(1-Oxo-5-(7-(4-(quinoxalin-2-yl)-1H-pyrazol-1-yl)heptyl)isoindolin-2-yl)piperidine-2,6-dione]	–	–	–	–	> 1000	10 to 100	100 to 1000	10 to 100
O=C1CCC(N2C(=O)c3ccc(NCCCCCCn4cc(-c5cnc6cccc(Cl)c6n5)cn4)cc3C2=O)C(=O)N1 (centres unmarked) [GS-376, 5-((6-(4-(8-Chloroquinoxalin-2-yl)-1H-pyrazol-1-yl)hexyl)amino)-2-(2,6-dioxopiperidin-3-yl)isoindoline-1,3-dione]	–	–	–	–	> 1000	10 to 100	100 to 1000	10 to 100
O=C1CCC(N2C(=O)c3ccc(NCCCCCCn4cc(-c5cnc6cccc(F)c6n5)cn4)cc3C2=O)C(=O)N1 (centres unmarked) [GS-377, 2-(2,6-Dioxopiperidin-3-yl)-5-((6-(4-(8-fluoroquinoxalin-2-yl)-1H-pyrazol-1-yl)hexyl)amino)isoindoline-1,3-dione]	–	–	–	–	> 1000	< 10	100 to 1000	10 to 100
O=C1CCC(N2Cc3c(NC4CCC(Nc5cccc(N6CCC(n7cc(-c8cnc9ccccc9n8)cn7)CC6)c5)CC4)cccc3C2=O)C(=O)N1 (centres unmarked) [GS-378, 3-(1-Oxo-4-((4-((3-(4-(4-(quinoxalin-2-yl)-1H-pyrazol-1-yl)piperidin-1-yl)phenyl)amino)cyclohexyl)amino)isoindolin-2-yl)piperidine-2,6-dione]	–	–	–	–	10 to 100	< 10	10 to 100	< 10
O=C1CCC(N2C(=O)c3ccc(NCCCCNC(=O)N4CCC(n5cc(-c6cnc7ccccc7n6)cn5)CC4)cc3C2=O)C(=O)N1 (centres unmarked) [GS-379, N-(4-((2-(2,6-Dioxopiperidin-3-yl)-1,3-dioxoisoindolin-5-yl)amino)butyl)-4-(4-(quinoxalin-2-yl)-1H-pyrazol-1-yl)piperidine-1-carboxamide]	–	–	–	–	> 1000	10 to 100	100 to 1000	10 to 100
Cc1nc(-c2cnc3ccccc3n2)cn1CCCCCCNc1ccc2c(c1)C(=O)N(C1CCC(=O)NC1=O)C2=O (centres unmarked) [GS-380, 2-(2,6-Dioxopiperidin-3-yl)-5-((6-(2-methyl-4-(quinoxalin-2-yl)-1H-imidazol-1-yl)hexyl)amino)isoindoline-1,3-dione]	–	–	–	–	100 to 1000	100 to 1000	> 1000	> 1000
O=C1CCC(N2C(=O)c3ccc(NCCCCCCn4cc(-c5cnc6cccc(N7CCOCC7)c6n5)cn4)cc3C2=O)C(=O)N1 (centres unmarked) [GS-381, 2-(2,6-Dioxopiperidin-3-yl)-5-((6-(4-(8-morpholinoquinoxalin-2-yl)-1H-pyrazol-1-yl)hexyl)amino)isoindoline-1,3-dione]	–	–	–	–	> 1000	10 to 100	> 1000	100 to 1000
O=C1CCC(N2C(=O)c3ccc(NCCCCCCn4cc(-c5cnc6cccc(C7CCOCC7)c6n5)cn4)cc3C2=O)C(=O)N1 (centres unmarked) [GS-382]	–	–	–	–	> 1000	10 to 100	> 1000	> 1000
CN1CCN(c2cccc3ncc(-c4cnn(CCCCCCNc5ccc6c(c5)C(=O)N(C5CCC(=O)NC5=O)C6=O)c4)nc23)CC1 (centres unmarked) [GS-383, 2-(2,6-Dioxopiperidin-3-yl)-5-((6-(4-(8-(4-methylpiperazin-1-yl)quinoxalin-2-yl)-1H-pyrazol-1-yl)hexyl)amino)isoindoline-1,3-dione]	–	–	–	–	> 1000	> 1000	> 1000	100 to 1000
O=C1CCC(N2C(=O)c3ccc(NCCCCCCn4cc(-c5cnc6cccc(N7CCNCC7)c6n5)cn4)cc3C2=O)C(=O)N1 (centres unmarked) [GS-384, 2-(2,6-Dioxopiperidin-3-yl)-5-((6-(4-(8-(piperazin-1-yl)quinoxalin-2-yl)-1H-pyrazol-1-yl)hexyl)amino)isoindoline-1,3-dione]	–	–	–	–	> 1000	> 1000	> 1000	> 1000
O=C1CCC(N2C(=O)c3ccc(NCCCCCCNc4ncc(-c5cnc6ccccc6n5)s4)cc3C2=O)C(=O)N1 (centres unmarked) [GS-385, 2-(2,6-Dioxopiperidin-3-yl)-5-((6-((5-(quinoxalin-2-yl)thiazol-2-yl)amino)hexyl)amino)isoindoline-1,3-dione]	–	–	–	–	100 to 1000	10 to 100	100 to 1000	10 to 100
O=C1CCC(N2C(=O)c3ccc(NCCCCCCc4ncc(-c5cnc6ccccc6n5)s4)cc3C2=O)C(=O)N1 (centres unmarked) [GS-386, 2-(2,6-Dioxopiperidin-3-yl)-5-((6-(5-(quinoxalin-2-yl)thiazol-2-yl)hexyl)amino)isoindoline-1,3-dione]	–	–	–	–	10 to 100	< 10	100 to 1000	10 to 100
COc1ccc2ncc(-c3cnn(CCCCCCNc4ccc5c(c4)C(=O)N(C4CCC(=O)NC4=O)C5=O)c3)nc2c1 (centres unmarked) [GS-387, 2-(2,6-Dioxopiperidin-3-yl)-5-((6-(4-(7-methoxyquinoxalin-2-yl)-1H-pyrazol-1-yl)hexyl)amino)isoindoline-1,3-dione]	–	–	–	–	100 to 1000	< 10	100 to 1000	10 to 100
CN1CCC(c2cccc3ncc(-c4cnn(CCCCCCNc5ccc6c(c5)C(=O)N(C5CCC(=O)NC5=O)C6=O)c4)nc23)CC1 (centres unmarked) [GS-388, 2-(2,6-Dioxopiperidin-3-yl)-5-((6-(4-(8-(1-methylpiperidin-4-yl)quinoxalin-2-yl)-1H-pyrazol-1-yl)hexyl)amino)isoindoline-1,3-dione]	–	–	–	–	> 1000	> 1000	> 1000	> 1000
O=C1CCC(N2C(=O)c3ccc(NCCCCCCn4cc(-c5cnc6cccc(C7CC7)c6n5)cn4)cc3C2=O)C(=O)N1 (centres unmarked) [GS-389, 5-((6-(4-(8-Cyclopropylquinoxalin-2-yl)-1H-pyrazol-1-yl)hexyl)amino)-2-(2,6-dioxopiperidin-3-yl)isoindoline-1,3-dione]	–	–	–	–	100 to 1000	10 to 100	100 to 1000	10 to 100
O=C1CCC(N2C(=O)c3ccc(NCCCCCNc4ncc(-c5cnc6ccccc6n5)s4)cc3C2=O)C(=O)N1 (centres unmarked) [GS-390, 2-(2,6-Dioxopiperidin-3-yl)-5-((5-((5-(quinoxalin-2-yl)thiazol-2-yl)amino)pentyl)amino)isoindoline-1,3-dione]	–	–	–	–	> 1000	100 to 1000	> 1000	100 to 1000
COc1cccc2ncc(-c3cnn(CCCCCCNc4ccc5c(c4)C(=O)N(C4CCC(=O)NC4=O)C5=O)c3)nc12 (centres unmarked) [GS-391, 2-(2,6-Dioxopiperidin-3-yl)-5-((6-(4-(8-methoxyquinoxalin-2-yl)-1H-pyrazol-1-yl)hexyl)amino)isoindoline-1,3-dione]	–	–	–	–	> 1000	100 to 1000	> 1000	> 1000
O=C1CCC(N2C(=O)c3ccc(NCC4CC(n5cc(-c6cnc7cccc(N8CCOCC8)c7n6)cn5)C4)cc3C2=O)C(=O)N1 (centres unmarked) [GS-392, 2-(2,6-Dioxopiperidin-3-yl)-5-(((3-(4-(8-morpholinoquinoxalin-2-yl)-1H-pyrazol-1-yl)cyclobutyl)methyl)amino)isoindoline-1,3-dione]	–	–	–	–	> 1000	> 1000	> 1000	100 to 1000
